Test results: patent US9095505B2, “Pyrethroids for treatment of ocular movement disorders” (RBG Group, LTD., priority 2013, dated 2015)
“Also recorded” adds a separate entry of the source.

Test system: canine subjects
Test: Eye movement recording of nystagmus in canine subjects (amplitude, NAFX)
Assay type: in vivo
Method: Eye movements were recorded using an EyeLink 1000 remote video recording system, with a sampling rate of 500-1000 Hz.
Efficacy was assessed by video-based eye tracking system wherein eye movement recordings of nystagmus and determination of Nystagmus Acuity Function (NAF, NAFX or eNAFX) was calculated from position and velocity data obtained from calibrated eye movement recordings. Techniques used to collect such data include a scleral search coil, non-contact infrared oculography, video pupillography and electroculography.
Nystagmus Acuity Function—NAF is a derived function that predicts the best-corrected visual acuity possible in subjects with nystagmus. NAF is based upon objective measurements of a subject's waveform characteristics during fixation of a small light-emitting diode and combines the foveation time per cycle and the standard deviations of both eye position and velocity during target foveation into a function that is linearly proportional to best-possible visual acuity.
Evaluation of the nystagmus acuity function (NAF, NAFX, eNAFX) is often used to evaluate the quality of the nystagmus cycle and/or quantify the effect of surgical or pharmaceutical intervention on the nystagmus waveform. […]
Amplitude—The amplitude of nystagmus was measured directly from calibrated eye movement recordings in degrees. […]

## CC1(C)C(/C=C(\Cl)C(F)(F)F)C1C(=O)OC(C#N)c1cccc(Oc2ccccc2)c1 [LC, (R)-cyano(3-phenoxyphenyl)methyl(1S,3S)-rel-3-[(1Z)-2-chloro-3,3,3-trifluoro-1-propenyl]-2,2-dimethylcyclopropanecarboxylate]
After two doses of 0.6% topical eye drop, compared to Pre Drop recording of FIG. 1
  high frequency (9-11) Hz pendular oscillation in eye position recording: less amplitude as compared to the Pre Drop eye movement recording; also recorded: only present only in extreme gaze
After two doses of 0.6% w/w formulation
  effect on nystagmus: significant improvement of nystagmus
